Where two headings read alike, the source gives them in different places.
System: patients with acute coronary syndromes undergoing PCI
[1] = 48-hour, MITT Without STEMI, exploratory

Description: Patients were eligible for enrollment if they had stable angina, unstable angina, or non-ST-segment elevation (NSTE) MI with obstructive coronary artery disease and were scheduled to undergo PCI.
The infusion began within 30 minutes prior to PCI and continued for at least 2 hours or until the conclusion of the index procedure, whichever was longer. At the treating physician's discretion, the infusion could be continued for 4 hours.
All patients received aspirin 75-325 mg per local site standards. Adjunctive anticoagulants (unfractionated heparin, low molecular weight heparin, bivalirudin, or fondaparinux) and the procedural use of glycoprotein IIb/IIIa inhibitors were determined by the treating physician.
The primary efficacy endpoint was the 48-hour composite of all-cause mortality, MI, or ischemia-driven revascularization. Prespecified secondary efficacy endpoints included the composite of mortality or MI at 48 hours and 30 days; the composite of mortality, MI, or ischemia-driven revascularization at 30 days; the components of the composite endpoints at 48 hours and 30 days; stroke at 48 hours; abrupt closure, threatened abrupt closure, need for urgent coronary artery bypass grafting, or unsuccessful procedure during the index PCI; acute (24 hours) and 48 hours stent thrombosis; and all-cause mortality at 6 months and 1 year.
Rates of MI and ischemia-driven revascularization up to 30 days following the index procedure were assessed. Ischemia-driven revascularization was defined as symptoms of myocardial ischemia leading to urgent (within 24 hours of the last episode of ischemia) revascularization, which must have occurred after the index procedure concluded (i.e., guidewire removal). New electrocardiographic changes, acute pulmonary edema, ventricular arrhythmias, or hemodynamic instability could also constitute evidence of ischemia.
MI was defined by a new Q wave (duration >0.03 seconds) in two contiguous electrocardiographic leads or elevations in creatine kinase (CK) and CK-MB, including a rise of CK-MB≧3 times the local upper limit or normal and, when biomarkers were elevated prior to PCI, an additional 50% above baseline. One baseline troponin measurement was required for patients undergoing urgent PCI. Measurements of CK-MB were obtained at 2, 10, 17, and 24 hours post-PCI.
The primary efficacy analysis was to be determined in the modified intent-to-treat (mITT) population, defined as all randomized patients (excluding STEMI cohort) who received at least one dose of study drug and underwent the index PCI. The safety population consisted of all randomized patients who received any study drug. Patients in the safety analyses were assigned to a treatment arm based on treatment received, not as randomized.

Question: What does the source list for `COC(=O)[C@H](c1ccccc1Cl)N1CCc2sccc2C1` [Clopidogrel, clopidogrel, reference compound]?
Answer: All-cause mortality (48-hour, MITT Without STEMI): 5 (0.1); IDR (48-hour, MITT Without STEMI): 23 (0.6); MI (48-hour, MITT Without STEMI): 256 (6.6); Mortality/MI/IDR (primary endpoint) (48-hour, MITT Without STEMI): 276 (7.1); Q-wave MI (48-hour, MITT Without STEMI): 10 (0.3); Stent thrombosis (48-hour, MITT Without STEMI): 11 (0.3); Stroke (48-hour, MITT Without STEMI): 7 (0.2); Mortality/Q-wave MI/IDR [1]: 34 (0.9); Mortality/Q-wave MI/Stent thrombosis [1]: 23 (0.6); All-cause mortality (48 hours, ITT): 11 (0.2) no. (%); IDR (48 hours, ITT): 31 (0.7) no. (%); MI (48 hours, ITT): 265 (6.0) no. (%); Mortality/MI/IDR (48 hours, ITT): 297 (6.7) no. (%); Mortality/Q-wave MI/IDR (48 hours, ITT): 48 (1.1) no. (%); Mortality/Q-wave MI/Stent thrombosis (48 hours, ITT): 33 (0.7) no. (%); Q-wave MI (48 hours, ITT): 10 (0.2) no. (%); Stent thrombosis (48 hours, ITT): 15 (0.3) no. (%); Stroke (48 hours, ITT): 8 (0.2) no. (%); All-cause mortality (48 hours, ITT With STEMI): 5 (1.0) no. (%); IDR (48 hours, ITT With STEMI): 8 (1.6) no. (%); MI (48 hours, ITT With STEMI): 9 (1.8) no. (%); Mortality/MI/IDR (48 hours, ITT With STEMI): 20 (3.9) no. (%); Mortality/Q-wave MI/IDR (48 hours, ITT With STEMI): 13 (2.6) no. (%); Mortality/Q-wave MI/Stent thrombosis (48 hours, ITT With STEMI): 9 (1.8) no. (%); Q-wave MI (48 hours, ITT With STEMI): 0 (0.0) no. (%); Stent thrombosis (48 hours, ITT With STEMI): 4 (0.8) no. (%); Stroke (48 hours, ITT With STEMI): 1 (0.2) no. (%); All-cause mortality (48 hours, ITT Without STEMI): 6 (0.2) no. (%); IDR (48 hours, ITT Without STEMI): 23 (0.6) no. (%); MI (48 hours, ITT Without STEMI): 256 (6.5) no. (%); Mortality/MI/IDR (48 hours, ITT Without STEMI): 277 (7.1) no. (%); Mortality/Q-wave MI/IDR (48 hours, ITT Without STEMI): 35 (0.9) no. (%); Mortality/Q-wave MI/Stent thrombosis (48 hours, ITT Without STEMI): 24 (0.6) no. (%); Q-wave MI (48 hours, ITT Without STEMI): 10 (0.3) no. (%); Stent thrombosis (48 hours, ITT Without STEMI): 11 (0.3) no. (%); Stroke (48 hours, ITT Without STEMI): 7 (0.2) no. (%); All-cause mortality (48 hours, MITT): 9 (0.2) no. (%); IDR (48 hours, MITT): 30 (0.7) no. (%); MI (48 hours, MITT): 264 (6.1) no. (%); Mortality/MI/IDR (48 hours, MITT): 293 (6.8) no. (%); Mortality/Q-wave MI/IDR (48 hours, MITT): 45 (1.0) no. (%); Mortality/Q-wave MI/Stent thrombosis (48 hours, MITT): 31 (0.7) no. (%); Q-wave MI (48 hours, MITT): 10 (0.2) no. (%); Stent thrombosis (48 hours, MITT): 15 (0.3) no. (%); Stroke (48 hours, MITT): 7 (0.2) no. (%); All-cause mortality (48 hours, MITT With STEMI): 4 (0.9) no. (%); IDR (48 hours, MITT With STEMI): 7 (1.6) no. (%); MI (48 hours, MITT With STEMI): 8 (1.8) no. (%); Mortality/MI/IDR (48 hours, MITT With STEMI): 17 (3.8) no. (%); Mortality/Q-wave MI/IDR (48 hours, MITT With STEMI): 11 (2.5) no. (%); Mortality/Q-wave MI/Stent thrombosis (48 hours, MITT With STEMI): 8 (1.8) no. (%); Q-wave MI (48 hours, MITT With STEMI): 0 (0.0) no. (%); Stent thrombosis (48 hours, MITT With STEMI): 4 (0.9) no. (%); Stroke (48 hours, MITT With STEMI): 0 (0.0) no. (%); All-cause mortality (48 hours, MITT Without STEMI): 5 (0.1) no. (%); IDR (48 hours, MITT Without STEMI): 23 (0.6) no. (%); MI (48 hours, MITT Without STEMI): 256 (6.6) no. (%); Mortality/MI/IDR (Prespecified primary endpoint) (48 hours, MITT Without STEMI): 276 (7.1) no. (%); Mortality/Q-wave MI/IDR (48 hours, MITT Without STEMI): 34 (0.9) no. (%); Mortality/Q-wave MI/Stent thrombosis (48 hours, MITT Without STEMI): 23 (0.6) no. (%); Q-wave MI (48 hours, MITT Without STEMI): 10 (0.3) no. (%); Stent thrombosis (48 hours, MITT Without STEMI): 11 (0.3) no. (%); Stroke (48 hours, MITT Without STEMI): 7 (0.2) no. (%); primary composite of all-cause mortality, MI, or ischemia-driven revascularization (48 hours, MITT Without STEMI): 7.1%; All-cause mortality (48 hours, Safety population): 9 (0.2) no. (%); IDR (48 hours, Safety population): 30 (0.7) no. (%); MI (48 hours, Safety population): 265 (6.1) no. (%); Mortality/MI/IDR (48 hours, Safety population): 294 (6.7) no. (%); Mortality/Q-wave MI/IDR (48 hours, Safety population): 45 (1.0) no. (%); Mortality/Q-wave MI/Stent thrombosis (48 hours, Safety population): 31 (0.7) no. (%); Q-wave MI (48 hours, Safety population): 10 (0.2) no. (%); Stent thrombosis (48 hours, Safety population): 15 (0.3) no. (%); Stroke (48 hours, Safety population): 7 (0.2) no. (%); All-cause mortality (30 days, ITT): 47 (1.1) no. (%); IDR (30 days, ITT): 69 (1.6) no. (%); MI (30 days, ITT): 293 (6.7) no. (%); Mortality/MI/IDR (30 days, ITT): 373 (8.5) no. (%); Mortality/Q-wave MI/IDR (30 days, ITT): 119 (2.7) no. (%); Mortality/Q-wave MI/Stent thrombosis (30 days, ITT): 82 (1.9) no. (%); Q-wave MI (30 days, ITT): 15 (0.3) no. (%); Stent thrombosis (30 days, ITT): 30 (0.7) no. (%); All-cause mortality (30 days, ITT With STEMI): 16 (3.2) no. (%)

From patent US8680052B1, “Methods of treating, reducing the incidence of, and/or preventing ischemic events” (The Medicines Company, priority 2013, dated 2014)
